Results from ChEMBL document CHEMBL1138088, “Design and synthesis of selective keto-1,2,4-oxadiazole-based tryptase inhibitors” (Bioorg Med Chem Lett, 2006).

How the values were obtained:
[1] = molecular target: Tryptase beta-1 (Homo sapiens, UniProt Q15661); assay: Inhibition of human B tryptase; conditions: read-out: Ki app
[2] = species on record: Homo sapiens; assay: Selectivity for tryptase over trypsin
[3] = molecular target: Trypsin (Homo sapiens, UniProt P07477+P07478+P35030); assay: Inhibition of trypsin; assay type: protein assay
[4] = molecular target: T1, Granzyme K (Homo sapiens, UniProt P49863); assay: Inhibition of granzyme K; conditions: read-out: Ki app
T1 sequence (P49863 whole entry): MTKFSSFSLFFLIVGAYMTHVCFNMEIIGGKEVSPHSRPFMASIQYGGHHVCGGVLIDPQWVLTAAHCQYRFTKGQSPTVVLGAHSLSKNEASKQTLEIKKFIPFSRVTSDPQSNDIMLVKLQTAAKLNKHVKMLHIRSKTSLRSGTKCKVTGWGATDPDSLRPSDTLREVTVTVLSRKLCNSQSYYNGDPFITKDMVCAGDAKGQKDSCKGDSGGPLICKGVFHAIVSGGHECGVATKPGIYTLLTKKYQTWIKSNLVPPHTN

[5] = molecular target: T2, Chymase (Homo sapiens, UniProt P23946); assay: Inhibition of chymase; conditions: read-out: Ki app
T2 sequence (P23946 whole entry): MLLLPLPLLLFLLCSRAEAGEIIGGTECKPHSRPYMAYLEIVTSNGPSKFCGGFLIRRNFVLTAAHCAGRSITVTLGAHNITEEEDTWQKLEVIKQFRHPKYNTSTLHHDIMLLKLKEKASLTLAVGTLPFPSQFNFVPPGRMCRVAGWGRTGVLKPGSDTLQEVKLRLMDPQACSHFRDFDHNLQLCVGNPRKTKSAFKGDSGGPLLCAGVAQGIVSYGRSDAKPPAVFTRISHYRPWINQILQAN

[6] = molecular target: Urokinase-type plasminogen activator (Homo sapiens, UniProt P00749); assay: Inhibition of urokinase; conditions: read-out: Ki app
[7] = molecular target: Chymotrypsinogen B (Homo sapiens, UniProt P17538); assay: Inhibition of chymotrypsin; conditions: read-out: Ki app
Chymotrypsinogen B, sequence (P17538 34-164 limits assumed, other chains not shown): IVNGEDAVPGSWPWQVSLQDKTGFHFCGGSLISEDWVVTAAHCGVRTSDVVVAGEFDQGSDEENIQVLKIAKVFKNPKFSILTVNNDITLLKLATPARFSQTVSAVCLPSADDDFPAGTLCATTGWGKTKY
Chymotrypsinogen B, sequence (P17538 167-263 limits assumed, other chains not shown): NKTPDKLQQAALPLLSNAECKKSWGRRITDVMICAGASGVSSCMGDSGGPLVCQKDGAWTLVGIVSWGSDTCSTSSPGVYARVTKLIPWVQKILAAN

[8] = molecular target: Plasminogen (Homo sapiens, UniProt P00747); assay: Inhibition of plasmin; conditions: read-out: Ki app
Plasminogen, sequence (P00747 97-580 limits assumed): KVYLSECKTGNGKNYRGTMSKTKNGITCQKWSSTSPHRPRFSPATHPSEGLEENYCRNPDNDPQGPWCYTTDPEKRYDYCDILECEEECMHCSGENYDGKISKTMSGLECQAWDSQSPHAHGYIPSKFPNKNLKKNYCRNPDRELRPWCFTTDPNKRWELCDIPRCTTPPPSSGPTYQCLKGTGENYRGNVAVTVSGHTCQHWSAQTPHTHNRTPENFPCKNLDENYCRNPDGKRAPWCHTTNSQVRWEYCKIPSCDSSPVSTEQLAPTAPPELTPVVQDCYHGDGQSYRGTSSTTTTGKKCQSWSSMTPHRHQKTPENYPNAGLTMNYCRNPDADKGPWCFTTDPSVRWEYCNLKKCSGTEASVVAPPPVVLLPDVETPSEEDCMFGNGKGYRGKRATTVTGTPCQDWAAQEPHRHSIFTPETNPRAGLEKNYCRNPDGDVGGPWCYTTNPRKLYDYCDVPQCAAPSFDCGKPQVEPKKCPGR
Plasminogen, sequence (P00747 581-810 limits assumed): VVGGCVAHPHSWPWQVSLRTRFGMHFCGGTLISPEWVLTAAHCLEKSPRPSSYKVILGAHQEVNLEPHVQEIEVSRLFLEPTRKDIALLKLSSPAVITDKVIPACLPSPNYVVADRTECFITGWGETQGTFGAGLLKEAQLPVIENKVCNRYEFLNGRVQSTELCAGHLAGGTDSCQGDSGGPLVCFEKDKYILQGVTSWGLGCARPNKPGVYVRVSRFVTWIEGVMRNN

[9] = molecular target: Plasma kallikrein (Homo sapiens, UniProt P03952); assay: Inhibition of kallikrein; conditions: read-out: Ki app
Plasma kallikrein, sequence (P03952 20-390 limits assumed): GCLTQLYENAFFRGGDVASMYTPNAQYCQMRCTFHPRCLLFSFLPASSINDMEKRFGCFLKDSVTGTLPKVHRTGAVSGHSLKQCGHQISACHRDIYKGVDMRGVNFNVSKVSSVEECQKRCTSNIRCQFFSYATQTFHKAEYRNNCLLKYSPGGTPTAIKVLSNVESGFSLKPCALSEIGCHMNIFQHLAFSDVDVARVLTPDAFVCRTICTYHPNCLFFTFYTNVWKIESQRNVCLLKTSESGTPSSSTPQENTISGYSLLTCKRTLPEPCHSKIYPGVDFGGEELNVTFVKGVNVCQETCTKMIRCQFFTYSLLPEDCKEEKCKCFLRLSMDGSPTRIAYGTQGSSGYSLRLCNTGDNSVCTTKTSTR
Plasma kallikrein, sequence (P03952 391-638 limits assumed): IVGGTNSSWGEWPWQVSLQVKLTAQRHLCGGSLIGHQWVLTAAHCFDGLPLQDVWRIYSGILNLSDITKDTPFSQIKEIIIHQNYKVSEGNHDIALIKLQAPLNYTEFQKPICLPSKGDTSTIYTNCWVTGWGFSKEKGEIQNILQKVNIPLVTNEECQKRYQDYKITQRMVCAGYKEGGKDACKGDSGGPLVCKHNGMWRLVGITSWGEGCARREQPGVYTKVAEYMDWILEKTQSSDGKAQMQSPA

[10] = molecular target: Vitamin K-dependent protein C (Homo sapiens, UniProt P04070); assay: Inhibition of APC; conditions: read-out: Ki app
Vitamin K-dependent protein C, sequence (P04070 43-197 limits assumed): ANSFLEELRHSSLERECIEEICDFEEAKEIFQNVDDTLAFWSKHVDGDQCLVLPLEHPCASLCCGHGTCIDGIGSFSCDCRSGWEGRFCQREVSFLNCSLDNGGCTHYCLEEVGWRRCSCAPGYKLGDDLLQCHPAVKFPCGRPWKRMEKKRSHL
Vitamin K-dependent protein C, sequence (P04070 212-461 limits assumed): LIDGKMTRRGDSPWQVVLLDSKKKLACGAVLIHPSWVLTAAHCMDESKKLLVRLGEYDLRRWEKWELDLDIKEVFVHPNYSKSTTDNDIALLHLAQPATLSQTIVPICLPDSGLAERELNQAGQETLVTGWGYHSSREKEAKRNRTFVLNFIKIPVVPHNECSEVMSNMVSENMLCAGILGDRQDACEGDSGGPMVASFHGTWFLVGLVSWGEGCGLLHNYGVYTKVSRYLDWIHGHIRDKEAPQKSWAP

[11] = Inhibition of elastase; design: species or system Homo sapiens; conditions: read-out: Ki app
[12] = molecular target: Prothrombin (Homo sapiens, UniProt P00734); assay: Inhibition of thrombin; conditions: read-out: Ki app
[13] = Cmax in rat at 0.5 mg/kg, iv; assay type: ADME, organism-based; design: dose 0.5 mg/kg, route intravenous; conditions: in vivo
[14] = Clearance in rat at 0.5 mg/kg, iv; assay type: ADME, organism-based; design: dose 0.5 mg/kg, route intravenous; conditions: in vivo
[15] = Mean residence time in rat at 0.5 mg/kg, iv; assay type: ADME, organism-based; design: dose 0.5 mg/kg, route intravenous; conditions: in vivo
[16] = Steady state volume of distribution in rat at 0.5 mg/kg, iv; assay type: ADME, organism-based; design: dose 0.5 mg/kg, route intravenous; conditions: in vivo, read-out: Vss
[17] = Central volume of distribution in rat at 0.5 mg/kg, iv; assay type: ADME, organism-based; design: dose 0.5 mg/kg, route intravenous; conditions: in vivo, read-out: Vc
[18] = Oral bioavailability in rat at 5 mg/kg, po; assay type: ADME, organism-based; conditions: in vivo
[19] = Oral absorption in rat at 5 mg/kg, po; assay type: ADME, organism-based; design: dose 5 mg/kg, route oral; conditions: in vivo
[20] = Terminal half life in rat at 5 mg/kg, po; assay type: ADME, organism-based; design: dose 5 mg/kg, route oral; conditions: in vivo
[21] = AUC in rat at 0.5 mg/kg, iv; assay type: ADME, organism-based; design: dose 0.5 mg/kg, route intravenous; conditions: plasma
[22] = Terminal half life in rat at 0.5 mg/kg, iv; assay type: ADME, organism-based; design: dose 0.5 mg/kg, route intravenous; conditions: in vivo
[23] = molecular target: Coagulation factor X (Homo sapiens, UniProt P00742); assay: Inhibition of factor 10a; conditions: read-out: Ki app
Coagulation factor X, sequence (P00742 41-179 limits assumed): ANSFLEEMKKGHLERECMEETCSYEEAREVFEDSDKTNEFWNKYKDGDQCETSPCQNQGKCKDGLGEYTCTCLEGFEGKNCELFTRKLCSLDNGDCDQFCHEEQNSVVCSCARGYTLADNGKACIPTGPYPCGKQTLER
Coagulation factor X, sequence (P00742 235-488 limits assumed): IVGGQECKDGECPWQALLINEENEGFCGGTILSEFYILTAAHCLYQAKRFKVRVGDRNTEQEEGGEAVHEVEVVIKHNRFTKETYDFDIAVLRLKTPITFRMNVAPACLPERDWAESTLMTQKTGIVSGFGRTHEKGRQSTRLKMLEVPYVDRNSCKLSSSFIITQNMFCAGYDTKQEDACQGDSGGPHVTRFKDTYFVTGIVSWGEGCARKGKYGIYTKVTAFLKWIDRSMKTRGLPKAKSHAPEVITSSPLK

[24] = molecular target: Coagulation factor XI (Homo sapiens, UniProt P03951); assay: Inhibition of factor 11a; conditions: read-out: Ki app
Coagulation factor XI, sequence (P03951 19-387 limits assumed): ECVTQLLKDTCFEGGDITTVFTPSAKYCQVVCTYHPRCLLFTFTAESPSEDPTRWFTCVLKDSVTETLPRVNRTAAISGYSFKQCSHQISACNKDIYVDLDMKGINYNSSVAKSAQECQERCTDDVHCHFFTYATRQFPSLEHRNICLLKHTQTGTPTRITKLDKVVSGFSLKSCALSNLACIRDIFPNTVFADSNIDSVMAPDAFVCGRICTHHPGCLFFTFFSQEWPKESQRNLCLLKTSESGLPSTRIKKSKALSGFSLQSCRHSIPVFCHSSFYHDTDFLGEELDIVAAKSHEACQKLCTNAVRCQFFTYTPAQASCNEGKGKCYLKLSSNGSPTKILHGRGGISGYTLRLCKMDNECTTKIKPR
Coagulation factor XI, sequence (P03951 388-625 limits assumed): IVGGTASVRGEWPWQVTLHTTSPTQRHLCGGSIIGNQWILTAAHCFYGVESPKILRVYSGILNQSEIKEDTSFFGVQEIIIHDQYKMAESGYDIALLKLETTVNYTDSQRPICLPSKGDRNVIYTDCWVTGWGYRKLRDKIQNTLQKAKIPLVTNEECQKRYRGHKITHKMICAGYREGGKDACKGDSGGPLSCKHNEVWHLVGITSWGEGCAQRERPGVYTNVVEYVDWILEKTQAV

[25] = molecular target: Coagulation factor IX (Homo sapiens, UniProt P00740); assay: Inhibition of factor 9a; conditions: read-out: Ki app
Coagulation factor IX, sequence (P00740 47-191 limits assumed): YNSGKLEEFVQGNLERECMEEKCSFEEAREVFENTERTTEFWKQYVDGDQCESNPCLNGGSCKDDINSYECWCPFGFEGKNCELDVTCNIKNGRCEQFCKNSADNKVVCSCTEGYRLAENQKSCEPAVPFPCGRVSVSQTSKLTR
Coagulation factor IX, sequence (P00740 227-461 limits assumed): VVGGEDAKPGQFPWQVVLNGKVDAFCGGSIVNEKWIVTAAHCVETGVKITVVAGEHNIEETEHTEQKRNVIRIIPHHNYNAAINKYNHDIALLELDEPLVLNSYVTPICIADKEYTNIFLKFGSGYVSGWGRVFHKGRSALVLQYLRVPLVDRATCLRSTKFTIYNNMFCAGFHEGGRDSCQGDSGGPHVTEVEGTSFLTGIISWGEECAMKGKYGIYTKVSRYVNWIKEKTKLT

[26] = molecular target: T3, Cathepsin G (Homo sapiens, UniProt P08311); assay: Inhibition of cathepsin G; conditions: read-out: Ki app
T3 sequence (P08311 whole entry): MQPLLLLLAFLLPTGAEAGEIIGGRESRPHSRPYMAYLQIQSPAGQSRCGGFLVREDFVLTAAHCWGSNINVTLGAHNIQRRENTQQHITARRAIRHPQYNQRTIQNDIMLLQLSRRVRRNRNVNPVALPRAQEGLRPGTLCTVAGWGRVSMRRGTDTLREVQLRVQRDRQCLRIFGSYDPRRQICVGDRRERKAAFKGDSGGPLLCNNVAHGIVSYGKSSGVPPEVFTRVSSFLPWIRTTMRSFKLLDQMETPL

[27] = molecular target: T4, Coagulation factor VII (Homo sapiens, UniProt P08709); assay: Inhibition of factor 7a; conditions: read-out: Ki app
T4 sequence (P08709 whole entry): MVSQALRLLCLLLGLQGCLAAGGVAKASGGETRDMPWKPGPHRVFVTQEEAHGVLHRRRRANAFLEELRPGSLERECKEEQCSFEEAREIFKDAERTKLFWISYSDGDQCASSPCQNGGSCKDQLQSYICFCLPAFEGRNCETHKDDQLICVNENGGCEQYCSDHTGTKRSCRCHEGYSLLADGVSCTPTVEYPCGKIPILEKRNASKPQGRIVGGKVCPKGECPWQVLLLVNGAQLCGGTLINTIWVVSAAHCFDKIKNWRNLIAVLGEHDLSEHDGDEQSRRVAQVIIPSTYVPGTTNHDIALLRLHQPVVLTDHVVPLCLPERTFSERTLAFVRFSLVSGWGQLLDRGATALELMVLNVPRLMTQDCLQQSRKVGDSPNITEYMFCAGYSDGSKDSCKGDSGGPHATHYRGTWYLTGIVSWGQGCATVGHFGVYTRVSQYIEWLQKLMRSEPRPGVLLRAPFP

Tryptase beta-1, sequence (Q15661 whole entry): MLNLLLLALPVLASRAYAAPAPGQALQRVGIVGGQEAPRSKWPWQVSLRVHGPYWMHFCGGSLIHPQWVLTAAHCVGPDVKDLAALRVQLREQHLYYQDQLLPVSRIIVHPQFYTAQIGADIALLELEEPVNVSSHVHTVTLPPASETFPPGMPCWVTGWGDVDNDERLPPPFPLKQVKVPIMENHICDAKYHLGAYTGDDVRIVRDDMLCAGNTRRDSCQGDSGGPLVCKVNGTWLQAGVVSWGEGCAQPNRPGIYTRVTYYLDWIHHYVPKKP

SMILES | Ki [1] [nM] | Selectivity ratio [2] | Ki app [3] [nM] | further results
NCCCC[C@H](NC(=O)C1CC1)C(=O)c1noc(Cc2ccc(OCCc3ccc(Cl)c(Cl)c3)cc2)n1 | 4.6 | 10 |  | 
CC(C)(C)COC(=O)N[C@@H](CCCCN)C(=O)c1noc(Cc2ccc(OCCc3ccc(Cl)c(Cl)c3)cc2)n1.Cl | 11 | 173 | 1900 | 
Cl.NCCCC[C@H](NC(=O)N1CCOCC1)C(=O)c1noc(Cc2ccc(OCCc3ccc(Cl)c(Cl)c3)cc2)n1 | 5.7 | 153 | 870 | 
Cl.NCCCC[C@H](NC(=O)c1ccco1)C(=O)c1noc(Cc2ccc(OCCc3ccc(Cl)c(Cl)c3)cc2)n1 | 2.3 | 209 | 480 | 
Cl.NCCCC[C@H](NC(=O)c1cccc(F)c1)C(=O)c1noc(Cc2ccc(OCCc3ccc(Cl)c(Cl)c3)cc2)n1 | 5.8 | 293 | 1700 | 
Cl.NCCCC[C@H](NC(=O)c1ccc(Cl)cc1)C(=O)c1noc(Cc2ccc(OCCc3ccc(Cl)c(Cl)c3)cc2)n1 | 6.55 | 389 | 2550 | 
COCCOC(=O)N[C@@H](CCCCN)C(=O)c1noc(Cc2ccc(OCCc3ccc(Cl)c(Cl)c3)cc2)n1.Cl | 5 | 100 | 500 | 
Cl.NCCCC[C@H](NC(=O)C(F)(F)F)C(=O)c1noc(Cc2ccc(OCCc3ccc(Cl)c(Cl)c3)cc2)n1 | 2.9 | 76 | 220 | 
CN(C)C(=O)N[C@@H](CCCCN)C(=O)c1noc(Cc2ccc(OCCc3ccc(Cl)c(Cl)c3)cc2)n1.Cl | 9.6 | 89 | 850 | 
CC(C)OC(=O)N[C@@H](CCCCN)C(=O)c1noc(Cc2ccc(OCCc3ccc(Cl)c(Cl)c3)cc2)n1.Cl | 5 | 83 | 415 | 
Cl.NCCCC[C@H](NC(=O)N1CCCC1)C(=O)c1noc(Cc2ccc(OCCc3ccc(Cl)c(Cl)c3)cc2)n1 | 32 | 119 | 3800 | 
CCOC(=O)N[C@@H](CCCCN)C(=O)c1noc(Cc2ccc(OCCc3ccccc3)cc2)n1 | 5.4 |  | 190 | Ki [4]: > 150000 nM; Ki [5]: > 150000 nM; Ki [6]: > 150000 nM; Ki [7]: > 150000 nM; Ki [8]: 430 nM; Ki [9]: 43000 nM; Ki [10]: > 150000 nM; Ki [11]: > 150000 nM; Ki [12]: 64000 nM
CCOC(=O)N[C@@H](CCCCN)C(=O)c1noc(Cc2ccc(OCCc3ccc(Cl)c(Cl)c3)cc2)n1.Cl | 4.7 | 81 | 380 | 
CC(C)C(=O)N[C@@H](CCCCN)C(=O)c1noc(Cc2ccc(OCCc3ccc(Cl)c(Cl)c3)cc2)n1.Cl | 6.8 | 18 | 120 | 
CC(C)(C)C(=O)N[C@@H](CCCCN)C(=O)c1noc(Cc2ccc(OCCc3ccc(Cl)c(Cl)c3)cc2)n1.Cl | 3.75 | 167 | 625 | 
Cl.NCCCC[C@H](NC(=O)C1CCOC1)C(=O)c1noc(Cc2ccc(OCCc3ccc(Cl)c(Cl)c3)cc2)n1 (stereo partly drawn) | 22 | 50 | 1100 | 
Cc1cc(C(=O)N[C@@H](CCCCN)C(=O)c2noc(Cc3ccc(OCCc4ccc(Cl)c(Cl)c4)cc3)n2)c(C)o1.Cl | 46 | 85 | 3900 | 
Cl.NCCCC[C@H](NC(=O)c1ccc(F)cc1)C(=O)c1noc(Cc2ccc(OCCc3ccc(Cl)c(Cl)c3)cc2)n1 |  |  | 1100 | Cmax [13]: 1010 nM; clearance [14]: 45 mL/min/kg; MRT [15]: 2.88 h; Vd [16]: 7.8 L/kg; Vd [17]: 0.457 L/kg; bioavailability [18]: 9%; Fa [19]: 12%; half-life [20]: 2.25 h; AUC [21]: 0.3 µM·h; half-life [22]: 2.9 h
CCCCCC(=O)N[C@@H](CCCCN)C(=O)c1noc(Cc2ccc(OCCc3ccc(Cl)c(Cl)c3)cc2)n1.Cl | 9.8 | 18 | 180 | 
CCN(CC)C(=O)N[C@@H](CCCCN)C(=O)c1noc(Cc2ccc(OCCc3ccc(Cl)c(Cl)c3)cc2)n1.Cl | 18 | 133 | 2400 | 
Cl.NCCCC[C@H](NC(=O)c1ccc(F)c(F)c1)C(=O)c1noc(Cc2ccc(OCCc3ccc(Cl)c(Cl)c3)cc2)n1 |  |  | 3300 | Ki [4]: > 150000 nM; Ki [5]: > 150000 nM; Ki [6]: > 150000 nM; Ki [23]: > 150000 nM; Ki [7]: > 150000 nM; Ki [24]: > 150000 nM; Ki [25]: > 150000 nM; Ki [8]: 910 nM; Ki [9]: 83000 nM; Ki [10]: > 150000 nM; Ki [11]: > 150000 nM; Ki [26]: > 150000 nM; Ki [12]: > 150000 nM; Ki [27]: > 150000 nM
COC(=O)N[C@@H](CCCCN)C(=O)c1noc(Cc2ccc(OCCc3ccc(Cl)c(Cl)c3)cc2)n1.Cl | 17 | 129 | 2200 | 
COCC(=O)N[C@@H](CCCCN)C(=O)c1noc(Cc2ccc(OCCc3ccc(Cl)c(Cl)c3)cc2)n1.Cl | 3.7 | 51 | 190 | 
Cl.NCCCC[C@H](NC(=O)N1CCCCC1)C(=O)c1noc(Cc2ccc(OCCc3ccc(Cl)c(Cl)c3)cc2)n1 | 9.2 | 152 | 1400 | 
Cl.NCCCC[C@H](NC(=O)C1CCCC1)C(=O)c1noc(Cc2ccc(OCCc3ccc(Cl)c(Cl)c3)cc2)n1 | 6.5 | 46 | 300 | 
Cl.NCCCC[C@H](NC(=O)c1ccccc1F)C(=O)c1noc(Cc2ccc(OCCc3ccc(Cl)c(Cl)c3)cc2)n1 | 6.2 | 177 | 1100 | 
Cl.NCCCC[C@H](NC(=O)c1ccc(F)cc1F)C(=O)c1noc(Cc2ccc(OCCc3ccc(Cl)c(Cl)c3)cc2)n1 | 3.25 | 354 | 1150 | 
